The source of these data is ChEMBL document CHEMBL1126789, “Conformational effects on retinoid receptor selectivity. 1. Effect of 9-double bond geometry on retinoid X receptor activity” (J Med Chem, 1993).

For assay [1], the target named is T1, Retinoic acid receptor alpha (Homo sapiens, UniProt P10276).
T1 sequence (P10276 whole entry): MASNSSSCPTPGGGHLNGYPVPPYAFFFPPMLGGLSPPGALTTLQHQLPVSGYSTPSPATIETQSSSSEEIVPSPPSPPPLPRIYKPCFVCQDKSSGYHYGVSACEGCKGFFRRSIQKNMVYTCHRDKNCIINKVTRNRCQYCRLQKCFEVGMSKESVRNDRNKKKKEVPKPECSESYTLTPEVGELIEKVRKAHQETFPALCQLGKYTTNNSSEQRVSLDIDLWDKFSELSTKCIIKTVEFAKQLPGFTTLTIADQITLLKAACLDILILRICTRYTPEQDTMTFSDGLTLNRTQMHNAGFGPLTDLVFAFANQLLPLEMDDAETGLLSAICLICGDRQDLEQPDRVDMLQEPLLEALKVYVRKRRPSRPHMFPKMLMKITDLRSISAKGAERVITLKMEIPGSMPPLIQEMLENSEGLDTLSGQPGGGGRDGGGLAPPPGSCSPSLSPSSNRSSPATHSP
Put plainly: Effective concentration against RAR-alpha receptor.

The target of assay [2] is T2, Retinoic acid receptor gamma (Homo sapiens, UniProt P13631).
T2 sequence (P13631 whole entry): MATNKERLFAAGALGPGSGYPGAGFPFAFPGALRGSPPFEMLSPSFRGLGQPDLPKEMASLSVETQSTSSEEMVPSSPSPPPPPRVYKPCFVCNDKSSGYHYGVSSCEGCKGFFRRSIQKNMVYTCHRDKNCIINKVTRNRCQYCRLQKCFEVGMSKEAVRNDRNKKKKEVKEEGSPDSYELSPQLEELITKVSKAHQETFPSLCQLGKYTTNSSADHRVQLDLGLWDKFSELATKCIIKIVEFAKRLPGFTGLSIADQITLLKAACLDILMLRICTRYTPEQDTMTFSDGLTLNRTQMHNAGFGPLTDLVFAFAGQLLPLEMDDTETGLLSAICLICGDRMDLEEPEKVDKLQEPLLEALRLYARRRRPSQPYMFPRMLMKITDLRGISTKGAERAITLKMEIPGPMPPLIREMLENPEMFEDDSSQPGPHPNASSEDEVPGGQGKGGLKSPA
Put plainly: Effective concentration against RAR-gamma receptor.

Assay [3] has as its target T3, Retinoic acid receptor beta (Homo sapiens, UniProt P10826).
T3 sequence (P10826 whole entry): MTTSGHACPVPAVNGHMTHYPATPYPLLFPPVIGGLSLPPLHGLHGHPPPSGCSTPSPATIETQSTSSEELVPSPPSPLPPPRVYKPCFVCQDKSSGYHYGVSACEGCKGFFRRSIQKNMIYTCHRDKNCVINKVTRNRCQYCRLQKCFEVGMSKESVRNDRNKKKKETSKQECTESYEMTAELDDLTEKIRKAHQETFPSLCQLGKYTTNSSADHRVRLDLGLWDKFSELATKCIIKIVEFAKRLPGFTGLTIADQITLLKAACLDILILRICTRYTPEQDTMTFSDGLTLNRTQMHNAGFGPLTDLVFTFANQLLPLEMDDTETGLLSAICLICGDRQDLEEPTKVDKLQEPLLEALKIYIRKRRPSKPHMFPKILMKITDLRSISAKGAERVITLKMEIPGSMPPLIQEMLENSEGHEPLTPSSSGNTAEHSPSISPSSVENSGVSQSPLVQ
Put plainly: Effective concentration against Retinoic acid receptor beta.

In assay [4] the target is T4, Retinoic acid receptor RXR-alpha (Homo sapiens, UniProt P19793).
T4 sequence (P19793 whole entry): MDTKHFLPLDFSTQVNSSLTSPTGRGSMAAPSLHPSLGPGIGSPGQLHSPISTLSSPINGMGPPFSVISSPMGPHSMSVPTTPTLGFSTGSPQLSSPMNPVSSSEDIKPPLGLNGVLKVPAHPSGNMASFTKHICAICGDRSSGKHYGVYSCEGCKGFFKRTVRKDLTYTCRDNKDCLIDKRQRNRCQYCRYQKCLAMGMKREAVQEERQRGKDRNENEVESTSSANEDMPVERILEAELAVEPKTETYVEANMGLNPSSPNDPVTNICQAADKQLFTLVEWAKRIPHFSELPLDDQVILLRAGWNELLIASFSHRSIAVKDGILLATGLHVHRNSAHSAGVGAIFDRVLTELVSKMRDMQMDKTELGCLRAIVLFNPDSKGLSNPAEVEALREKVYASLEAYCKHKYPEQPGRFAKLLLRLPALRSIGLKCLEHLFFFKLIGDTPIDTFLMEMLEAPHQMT
Put plainly: Effective concentration against RXR-alpha receptor.

Assay [5] concerns the target T3, Retinoic acid receptor beta. Put plainly: Effective concentration against RAR-beta receptor.

On to `CC1=C(/C=C/C(C)=C\c2ccc(C(=O)O)cc2)C(C)(C)CCC1`, for which the EC50 – broadly, the concentration that produces a half-maximal response – was found to be 5000 nM in assay [1], 2000 nM in assay [2] and 1800 nM in assay [3].

Consider `CC1=C(/C=C/C(C)=C/c2ccc(C(=O)O)cc2)C(C)(C)CCC1`, for which the EC50 in assay [1] amounted to 240 nM; in assay [2], 35 nM; in assay [3], 5 nM.

As to `C/C(=C\c1ccc2c(c1)C(C)(C)CCC2(C)C)c1ccc(C(=O)O)cc1`, the EC50 came out at 37 nM in assay [1], 19 nM in assay [2] and 25 nM in assay [3].

For `CC1=C(CC/C(C)=C\c2ccc(C(=O)O)cc2)C(C)(C)CCC1`, the EC50 stood at 1300 nM in assay [2] and 2000 nM in assay [3].

With `CC1=C(CC/C(C)=C/c2ccc(C(=O)O)cc2)C(C)(C)CCC1`, the concentration for a half-maximal effect (EC50) in assay [1] came to 550 nM; in assay [4] it was 1500 nM; in assay [2] it was 210 nM; in assay [3], 20 nM.

In the case of `C/C(=C\c1ccc(C(=O)O)cc1)c1ccc2c(c1)C(C)(C)CCS2`, the results for the EC50 in assay [1], in assay [2] and in assay [3] were 27 nM, 30 nM and 15 nM, respectively.

Take `C/C(=C\c1ccc(C(=O)O)cc1)c1ccc2c(c1)C1CCC2C1` (stereo not drawn): the EC50 is 1100 nM in assay [5] and 550 nM in assay [2].

Regarding `C/C(=C/c1ccc(C(=O)O)cc1)c1ccc2c(c1)C(C)(C)CCS2`, the EC50 in assay [1] was found to be 2300 nM; in assay [2] it was 1100 nM; in assay [3], 250 nM.

For `C/C(=C\c1ccc2c(c1)C(C)(C)CCS2)c1ccc(C(=O)O)cc1`, the 50% effective concentration (EC50) in assay [1] came to 45 nM; in assay [2] it was 47 nM; in assay [3], 40 nM.

Molecule `C/C(=C/c1ccc(C(=O)O)cc1)c1ccc2c(c1)C1CCC2C1` (stereo not drawn) yielded an EC50 in assay [2] of 70 nM.

`C/C(=C/c1ccc(C(=O)O)cc1)c1ccc2c(c1)C(C)(C)CCC2(C)C` registered an EC50 in assay [4] of 2700 nM.

Consider `C/C(=C/c1ccc2c(c1)C(C)(C)CCC2(C)C)c1ccc(C(=O)O)cc1`, for which the EC50 in assay [4] was found to be 1100 nM; in assay [2], 2700 nM; in assay [3], 1900 nM.

Take `C/C(=C/c1ccc2c(c1)C(C)(C)CCS2)c1ccc(C(=O)O)cc1`: the EC50 in assay [1] came out at 2100 nM; in assay [4], 2800 nM; in assay [2], 1500 nM; in assay [3], 1500 nM.

Turning to `CC1(C)CCC(C)(C)c2cc(-c3ccccc3-c3ccc(C(=O)O)cc3)ccc21`, the EC50 came to 2800 nM in assay [4], 100 nM in assay [2] and 3200 nM in assay [3].
